According to doi:10.1101/2021.09.15.460527v1 (bioRxiv, 2021):
Starred links: 1 amine or outer side, 2 acyl side, 3 side chain; linkers in the order of their positions; H or OH if unused. Groups on a side chain read outwards from the residue. No end group written: not given here. *: point of attachment. γGlu = O=C(O)[C@H](CCC(=O)[*:2])N[*:1]; Palmitoyl = CCCCCCCCCCCCCCCC(=O)*

Tested on: rats with heroin self-administration experience
Assay: Cue-induced heroin seeking
Assay type: in vivo, rat
Details: 0.3 mg/kg sc

Question: “liraglutide (HAEGTFTSDVSSYLEGQAAK([γGlu-Palmitoyl])EFIAWLVRGRG; chains of the INN, looked up)” was tested. Which “Minimum effective pretreatment time” value did it give?
Answer: between four and six
